# Assay results published in ChEMBL document CHEMBL1201861, “Genomics of Drug Sensitity in Cancer screening data, Wellcome Trust Sanger Institute”.
# Values joined by “and” are separate entries in the source; they are usually repeats but may differ in a detail not shown here. Identical values can stand only once.
# What was measured:
# Assay in all cases: cells
# GT3TKB = format: functional, cell-based, Homo sapiens;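 further: growth inhibition of the cell line, read out with a cell viability assay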
# Description: SANGER: Inhibition of human GT3TKB cell growth in a cell viability assay.
# D-392MG = format: functional, cell-based, Homo sapiens
# HEC-1 = format: functional, cell-based, Homo sapiens;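 further: growth inhibition of the cell line, read out with a cell viability assay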
# Description: SANGER: Inhibition of human HEC-1 cell growth in a cell viability assay.
# LU-134-A = format: functional, cell-based; conditions: Homo sapiens
# Description: SANGER: Inhibition of human LU-134-A cell growth in a cell viability assay.
# GMS-10 = format: functional, cell-based, Homo sapiens;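 further: growth inhibition of GMS-10 cells, read out as cell viability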
# Description: SANGER: Inhibition of human GMS-10 cell growth in a cell viability assay.
# OE19 = format: functional, cell-based, Homo sapiens;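 further: growth inhibition of OE19 cells, measured through a cell viability read-out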
# Description: SANGER: Inhibition of human OE19 cell growth in a cell viability assay.
# HCC1569 = format: functional, cell-based, Homo sapiens;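 further: growth inhibition of human HCC1569 cells, read out with a cell viability assay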
# Description: SANGER: Inhibition of human HCC1569 cell growth in a cell viability assay.
# MOLT-4 = format: functional, cell-based; conditions: Homo sapiens;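 further: growth inhibition of MOLT-4 cells, determined with a cell viability readout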
# Description: SANGER: Inhibition of human MOLT-4 cell growth in a cell viability assay.
# KYSE-450 = format: functional, cell-based; conditions: Homo sapiens;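 further: cell growth inhibition measured by a viability assay in human KYSE-450 cells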
# Description: SANGER: Inhibition of human KYSE-450 cell growth in a cell viability assay.
# EW-24 = format: functional, cell-based; conditions: Homo sapiens;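 further: human EW-24 cancer cell line, growth inhibition read out via a cell viability assay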
# Description: SANGER: Inhibition of human EW-24 cell growth in a cell viability assay.
# Hs-578T = format: functional, cell-based, Homo sapiens
# Description: SANGER: Inhibition of human Hs-578-T cell growth in a cell viability assay.
# JVM-3 = format: functional, cell-based; conditions: Homo sapiens;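 further: growth inhibition of human JVM-3 cells, read out with a cell viability assay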
# Description: SANGER: Inhibition of human JVM-3 cell growth in a cell viability assay.
# MZ7-mel = format: functional, cell-based, Homo sapiens;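 further: growth inhibition of human MZ7-mel cells, measured by a cell viability assay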
# Description: SANGER: Inhibition of human MZ7-mel cell growth in a cell viability assay.
# MV4-11 = format: functional, cell-based, MV-4-11; conditions: Homo sapiens;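 further: cell viability readout measuring growth inhibition of human MV-4-11 cells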
# Description: SANGER: Inhibition of human MV-4-11 cell growth in a cell viability assay.
# NCI-H358 = format: functional, cell-based, Homo sapiens;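 further: growth inhibition of NCI-H358 human cells, read out with a cell viability assay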
# Description: SANGER: Inhibition of human NCI-H358 cell growth in a cell viability assay.
# RS4-11 = format: functional, cell-based; conditions: Homo sapiens;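 further: growth inhibition of RS4-11 cells, read out by a cell viability assay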
# Description: SANGER: Inhibition of human RS4-11 cell growth in a cell viability assay.
# NCI-H810 = format: functional, cell-based, Homo sapiens;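 further: IC50 reflects inhibition of cancer cell line growth, read out with a cell viability assay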
# Description: SANGER: Inhibition of human NCI-H810 cell growth in a cell viability assay.
# RXF 393 = format: functional, cell-based; conditions: Homo sapiens;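 further: growth inhibition of human RXF 393 cells, read out with a cell viability assay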
# Description: SANGER: Inhibition of human RXF393 cell growth in a cell viability assay.
# NCI-H2087 = format: functional, cell-based, Homo sapiens;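 further: growth inhibition determined with a cell viability readout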
# Description: SANGER: Inhibition of human NCI-H2087 cell growth in a cell viability assay.
# SCC-25 = format: functional, cell-based, Homo sapiens;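 further: growth inhibition of SCC-25 cells, measured with a cell viability assay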
# Description: SANGER: Inhibition of human SCC-25 cell growth in a cell viability assay.
# LoVo = format: functional, cell-based; conditions: Homo sapiens;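 further: growth inhibition of human LoVo cells, read out with a cell viability assay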
# Description: SANGER: Inhibition of human LoVo cell growth in a cell viability assay.
# Ca-Ski = format: functional, cell-based; conditions: Homo sapiens;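 further: cell viability assay measuring inhibition of Ca-Ski cell growth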
# Description: SANGER: Inhibition of human Ca-Ski cell growth in a cell viability assay.
# ALL-PO = format: functional, cell-based; conditions: Homo sapiens;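 further: growth inhibition of ALL-PO cells, read out by a cell viability assay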
# Description: SANGER: Inhibition of human ALL-PO cell growth in a cell viability assay.
# HT1197 = format: functional, cell-based, Homo sapiens, HT-1197
# Description: SANGER: Inhibition of human HT-1197 cell growth in a cell viability assay.
# RCM-1 = format: functional, cell-based, Homo sapiens;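 further: growth inhibition of the RCM-1 line, determined with a cell viability readout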
# Description: SANGER: Inhibition of human RCM-1 cell growth in a cell viability assay.
# HT-1080 = format: functional, cell-based, Homo sapiens
# Description: SANGER: Inhibition of human HT-1080 cell growth in a cell viability assay.
# WM-115 = format: functional, cell-based, Homo sapiens
# Description: SANGER: Inhibition of human WM-115 cell growth in a cell viability assay.
# SK-LU-1 = format: functional, cell-based, Homo sapiens;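 further: cell viability assay measuring growth inhibition of human SK-LU-1 cells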
# Description: SANGER: Inhibition of human SK-LU-1 cell growth in a cell viability assay.
# SK-MEL3 = format: functional, cell-based, Homo sapiens, SK-MEL-3;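 further: growth inhibition of human SK-MEL-3 cells, read out with a cell viability assay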
# Description: SANGER: Inhibition of human SK-MEL-3 cell growth in a cell viability assay.
# LAN-6 = format: functional, cell-based, Homo sapiens;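 further: growth inhibition of LAN-6 cells, determined with a cell viability assay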
# Description: SANGER: Inhibition of human LAN-6 cell growth in a cell viability assay.
# BV-173 = format: functional, cell-based; conditions: Homo sapiens
# Description: SANGER: Inhibition of human BV-173 cell growth in a cell viability assay.
# SW780 = format: functional, cell-based, Homo sapiens;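 further: growth inhibition of the cells, read out with a cell viability assay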
# Description: SANGER: Inhibition of human SW780 cell growth in a cell viability assay.
# HCC70 = format: functional, cell-based, Homo sapiens;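 further: cell viability assay measuring how strongly the compound suppresses proliferation of HCC70 cells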
# Description: SANGER: Inhibition of human HCC70 cell growth in a cell viability assay.
# SCC-9 = format: functional, cell-based, Homo sapiens;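 further: Read-out is a cell viability assay, with values giving inhibition of cell growth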
# Description: SANGER: Inhibition of human SCC-9 cell growth in a cell viability assay.
# BT-474 = format: functional, cell-based, Homo sapiens
# Description: SANGER: Inhibition of human BT-474 cell growth in a cell viability assay.
# RCC10RGB = format: functional, cell-based, Homo sapiens;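 further: growth inhibition of human RCC10RGB cells, read out by a cell viability assay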
# Description: SANGER: Inhibition of human RCC10RGB cell growth in a cell viability assay.
# NCI-H2405 = format: functional, cell-based, Homo sapiens;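 further: growth inhibition of the human cell line, read out with a cell viability assay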
# Description: SANGER: Inhibition of human NCI-H2405 cell growth in a cell viability assay.
# MDA-MB-361 = format: functional, cell-based, Homo sapiens
# NCI-H2347 = format: functional, cell-based, Homo sapiens;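 further: growth inhibition of the cell line, read out with a cell viability assay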
# Description: SANGER: Inhibition of human NCI-H2347 cell growth in a cell viability assay.
# KYSE-150 cell line = format: functional, cell-based, Homo sapiens;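 further: growth inhibition of human KYSE-150 cells, read out with a cell viability assay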
# Description: SANGER: Inhibition of human KYSE-150 cell growth in a cell viability assay.
# CCRF-CEM = format: functional, cell-based; conditions: Homo sapiens;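 further: inhibition of CCRF-CEM cell growth, measured by a cell viability assay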
# Description: SANGER: Inhibition of human CCRF-CEM cell growth in a cell viability assay.
# D-502MG = format: functional, cell-based, Homo sapiens
# Description: SANGER: Inhibition of human D-502MG cell growth in a cell viability assay.
# COLO-741 = format: functional, cell-based, Homo sapiens
# Description: SANGER: Inhibition of human COLO-741 cell growth in a cell viability assay.
# TGW = format: functional, cell-based; conditions: Homo sapiens;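 further: growth inhibition of human TGW cells, read out with a cell viability assay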
# Description: SANGER: Inhibition of human TGW cell growth in a cell viability assay.
# L-363 = format: functional, cell-based; conditions: Homo sapiens
# Description: SANGER: Inhibition of human L-363 cell growth in a cell viability assay.
# KYSE-140 = format: functional, cell-based, Homo sapiens;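 further: cell viability assay measuring growth inhibition in human KYSE-140 cells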
# Description: SANGER: Inhibition of human KYSE-140 cell growth in a cell viability assay.
# UACC-893 = format: functional, cell-based, Homo sapiens
# Description: SANGER: Inhibition of human UACC-893 cell growth in a cell viability assay.
# ONS-76 = format: functional, cell-based, Homo sapiens;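 further: growth inhibition of human ONS-76 cells, read out with a cell viability assay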
# Description: SANGER: Inhibition of human ONS-76 cell growth in a cell viability assay.
# COR-L23 = format: functional, cell-based, Homo sapiens;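 further: cell viability assay measuring how strongly compounds suppress growth of COR-L23 cells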
# Description: SANGER: Inhibition of human COR-L23 cell growth in a cell viability assay.
# GI-ME-N = format: functional, cell-based, Homo sapiens;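 further: growth inhibition of human GI-ME-N cells, read out with a cell viability assay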
# Description: SANGER: Inhibition of human GI-ME-N cell growth in a cell viability assay.
# TYK-nu = format: functional, cell-based, Homo sapiens; conditions: tyk-nu;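 further: growth inhibition of human TYK-nu cells, read out by a cell viability assay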
# Description: SANGER: Inhibition of human TYK-nu cell growth in a cell viability assay.
# KP-N-YN = format: functional, cell-based; conditions: Homo sapiens;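 further: growth inhibition of KP-N-YN cells, read out with a cell viability assay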
# Description: SANGER: Inhibition of human KP-N-YN cell growth in a cell viability assay.
compound,measurement,setting,value
COC(=O)CNC(=O)C(=O)OC,IC50,"GT3TKB; Homo sapiens, GT3TKB",242 µM
same,IC50,"D-392MG; Homo sapiens, D-392MG",1.57 mM
same,IC50,"HEC-1; Homo sapiens, HEC-1",954 µM
same,IC50,LU-134-A,> 4 mM
same,IC50,"GMS-10; Homo sapiens, GMS-10",2.19 mM
same,IC50,"OE19; Homo sapiens, OE19",> 4 mM
same,IC50,"HCC1569; Homo sapiens, HCC1569",1680 µM
same,IC50,MOLT-4,718 µM
same,IC50,KYSE-450,2.48 mM
same,IC50,EW-24,2.29 mM
same,IC50,"Hs-578T; Homo sapiens, Hs-578T",3120 µM
same,IC50,JVM-3,> 4 mM
same,IC50,"MZ7-mel; Homo sapiens, MZ7-mel",171 µM
same,IC50,MV4-11,276 µM
same,IC50,"NCI-H358; Homo sapiens, NCI-H358",103 µM
same,IC50,RS4-11,34.2 µM
same,IC50,"NCI-H810; Homo sapiens, NCI-H810",630 µM
same,IC50,RXF 393,1.26 mM
same,IC50,"NCI-H2087; Homo sapiens, NCI-H2087",108 µM
same,IC50,"SCC-25; Homo sapiens, SCC-25",1230 µM
same,IC50,LoVo,951 µM
same,IC50,Ca-Ski,157 µM
same,IC50,ALL-PO,69.9 µM
same,IC50,"HT1197; Homo sapiens, HT1197",315 µM
same,IC50,"RCM-1; Homo sapiens, RCM-1",2.98 mM
same,IC50,"HT-1080; Homo sapiens, HT-1080",421 µM
same,IC50,"WM-115; Homo sapiens, WM-115",220 µM
same,IC50,"SK-LU-1; Homo sapiens, SK-LU-1",66 µM
same,IC50,"SK-MEL3; Homo sapiens, SK-MEL3",279 µM
same,IC50,"LAN-6; Homo sapiens, LAN-6",2.08 mM
same,IC50,BV-173,234 µM
same,IC50,"SW780; Homo sapiens, SW780",133 µM
same,IC50,"HCC70; Homo sapiens, HCC70",306 µM
same,IC50,"SCC-9; Homo sapiens, SCC-9",122000 nM
same,IC50,"BT-474; Homo sapiens, BT-474",> 4 mM
same,IC50,"RCC10RGB; Homo sapiens, RCC10RGB",1.04 mM
same,IC50,"NCI-H2405; Homo sapiens, NCI-H2405",261 µM
same,IC50,"MDA-MB-361; Homo sapiens, MDA-MB-361",1690 µM
same,IC50,"NCI-H2347; Homo sapiens, NCI-H2347",121 µM
same,IC50,"KYSE-150 cell line; Homo sapiens, KYSE-150",1.33 mM
same,IC50,CCRF-CEM,37.8 µM
same,IC50,"D-502MG; Homo sapiens, D-502MG",> 4 mM
same,IC50,"COLO-741; Homo sapiens, COLO-741",> 4 mM
same,IC50,TGW,> 4 mM
same,IC50,L-363,150 µM
same,IC50,"KYSE-140; Homo sapiens, KYSE-140",1.61 mM
same,IC50,"UACC-893; Homo sapiens, UACC-893",> 4000 µM
same,IC50,"ONS-76; Homo sapiens, ONS-76",241 µM
same,IC50,"COR-L23; Homo sapiens, COR-L23",1.88 mM
same,IC50,"GI-ME-N; Homo sapiens, GI-ME-N",2.12 mM
Cc1cc([C@@H](C)Nc2ccccc2C(=O)O)c2nc(N3CCOCC3)cc(=O)n2c1 [AZD-6482],IC50,GT3TKB; gt3tkb,> 5.12 µM
same,IC50,D-392MG; d-392mg,> 0.00512 mM
same,IC50,"HEC-1; Homo sapiens, HEC-1",> 5.12 µM
same,IC50,HEC-1; hec-1,> 5.12 µM
same,IC50,LU-134-A,> 0.00512 mM
same,IC50,"GMS-10; Homo sapiens, GMS-10",> 0.00512 mM
same,IC50,GMS-10; gms-10,> 0.00512 mM
same,IC50,OE19; oe19,> 0.00512 mM
same,IC50,HCC1569; hcc1569,3.29 µM and > 5.12 µM
same,IC50,MOLT-4,> 5.12 µM
same,IC50,KYSE-450,> 0.00512 mM
same,IC50,EW-24,> 0.00512 mM
same,IC50,Hs-578T; hs-578-t,> 5.12 µM and 3.5 µM
same,IC50,JVM-3,> 0.00512 mM
same,IC50,"MZ7-mel; Homo sapiens, MZ7-mel",> 5.12 µM
same,IC50,MZ7-mel; mz7-mel,> 5.12 µM
same,IC50,MV4-11,2.66 µM
same,IC50,NCI-H358; nci-h358,> 5.12 µM
same,IC50,RS4-11,0.738 µM
same,IC50,"NCI-H810; Homo sapiens, NCI-H810",> 5.12 µM
same,IC50,NCI-H810; nci-h810,> 5.12 µM
same,IC50,"NCI-H2087; Homo sapiens, NCI-H2087",> 5.12 µM
same,IC50,NCI-H2087; nci-h2087,> 5.12 µM
same,IC50,SCC-25; scc-25,> 5.12 µM and 4.74 µM
same,IC50,Ca-Ski,1.93 µM
same,IC50,ALL-PO,> 5.12 µM
same,IC50,TYK-nu,> 5.12 µM
same,IC50,HT1197; ht-1197,> 5.12 µM
same,IC50,RCM-1; rcm-1,> 0.00512 mM
same,IC50,HT-1080; ht-1080,> 5.12 µM
same,IC50,WM-115; wm-115,> 5.12 µM
same,IC50,SK-LU-1; sk-lu-1,> 5.12 µM
same,IC50,"SK-MEL3; Homo sapiens, SK-MEL3",> 5.12 µM
same,IC50,SK-MEL3; sk-mel-3,> 5.12 µM
same,IC50,LAN-6; lan-6,> 0.00512 mM
same,IC50,BV-173,> 5.12 µM
same,IC50,SW780; sw780,> 5.12 µM
same,IC50,HCC70; hcc70,1.66 µM and > 5.12 µM
same,IC50,"SCC-9; Homo sapiens, SCC-9",858 nM
same,IC50,SCC-9; scc-9,904 nM
same,IC50,KP-N-YN,> 5.12 µM
same,IC50,BT-474; bt-474,> 0.00512 mM
same,IC50,RCC10RGB; rcc10rgb,> 0.00512 mM
same,IC50,NCI-H2405; nci-h2405,> 5.12 µM
same,IC50,"MDA-MB-361; Homo sapiens, MDA-MB-361",3.53 µM
same,IC50,MDA-MB-361; mda-mb-361,> 5.12 µM
same,IC50,"NCI-H2347; Homo sapiens, NCI-H2347",> 5.12 µM
same,IC50,NCI-H2347; nci-h2347,> 5.12 µM
same,IC50,KYSE-150 cell line; kyse-150,> 0.00512 mM
same,IC50,CCRF-CEM,3.61 µM
same,IC50,D-502MG; d-502mg,> 0.00512 mM
same,IC50,COLO-741; colo-741,> 0.00512 mM
same,IC50,TGW,> 0.00512 mM
same,IC50,L-363,> 5.12 µM
same,IC50,KYSE-140; kyse-140,> 0.00512 mM
same,IC50,UACC-893; uacc-893,3.98 µM and 1.51 µM
same,IC50,ONS-76; ons-76,> 5.12 µM
same,IC50,COR-L23; cor-l23,> 0.00512 mM
same,IC50,GI-ME-N; gi-me-n,> 0.00512 mM
